Assay results: ChEMBL document CHEMBL3526044, “Effect of albumin on human liver microsomal and recombinant CYP1A2 activities: impact on in vitro-in vivo extrapolation of drug clearance” (Drug Metab Dispos, 2012)

Assays:
Liver microsome [1] = experiment: Drug metabolism in human liver microsomes assessed as retention time treated with 25 to 8000 uM lidocaine incubated for 5 mins prior to NADPH addition measured after 25 mins by HPLC analysis; assay type: ADME
Cytochrome P450 1A2 [2] = molecular target: T1, Cytochrome P450 1A2 (Rattus norvegicus, UniProt P04799); experiment: Competitive inhibition of rat recombinant CYP1A2 expressed in Escherichia coli assessed as inhibition of PHEN O-deethylation by dixon plot analysis; assay type: ADME
T1 sequence (P04799 whole entry): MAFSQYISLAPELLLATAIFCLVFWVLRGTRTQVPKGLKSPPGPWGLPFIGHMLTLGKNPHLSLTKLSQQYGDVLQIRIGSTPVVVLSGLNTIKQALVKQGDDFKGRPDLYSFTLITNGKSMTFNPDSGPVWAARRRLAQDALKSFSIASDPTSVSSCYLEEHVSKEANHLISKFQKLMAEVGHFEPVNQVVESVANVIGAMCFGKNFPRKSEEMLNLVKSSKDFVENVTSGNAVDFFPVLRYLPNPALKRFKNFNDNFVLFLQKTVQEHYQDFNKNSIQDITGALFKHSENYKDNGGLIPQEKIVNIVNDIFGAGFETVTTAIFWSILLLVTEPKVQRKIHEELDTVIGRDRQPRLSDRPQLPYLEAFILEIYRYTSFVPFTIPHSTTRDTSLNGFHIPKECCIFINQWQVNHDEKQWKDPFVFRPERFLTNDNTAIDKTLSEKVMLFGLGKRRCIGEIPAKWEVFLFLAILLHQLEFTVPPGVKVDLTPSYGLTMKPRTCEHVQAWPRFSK

Liver microsome [3] = experiment: Drug metabolism in human liver microsomes assessed as retention time at 2 to 2000 uM incubated for 5 mins prior to NADPH addition measured after 25 mins by HPLC analysis; assay type: ADME
Homo sapiens [4] = experiment: Intrinsic clearance in healthy human at 250 mg, iv; assay type: ADME, organism-based; conditions: in vivo
Liver microsome [5] = experiment: (§1) Drug metabolism in human liver microsomes assessed as enzyme-mediated O-deethylation incubated for 5 mins prior to NADPH addition measured after 25 mins by Michaelis-Menten equation analysis in presence of BSA; assay type: ADME; conditions: microsomes, 25 min
[6] = as §1; assay type: ADME; conditions: liver microsomes
Cytochrome P450 1A2 [7] = molecular target: T1, Cytochrome P450 1A2; experiment: Binding affinity to rat recombinant CYP1A2 expressed in Escherichia coli assessed as fraction unbound by equilibrium dialysis method
Homo sapiens [8] = experiment: Hepatic clearance in healthy human at 250 mg, iv; assay type: ADME, organism-based, Liver; conditions: in vivo
Cytochrome P450 1A2 [9] = molecular target: T1, Cytochrome P450 1A2; experiment: Binding affinity to rat recombinant CYP1A2 expressed in Escherichia coli assessed as fraction unbound by equilibrium dialysis method in presence of BSA; assay type: ADME
[10] = Fraction unbound in human liver microsomes by equilibrium dialysis method in presence of BSA
[11] = Fraction unbound in human liver microsomes by equilibrium dialysis method
Liver microsome [12] = experiment: (§2) Drug metabolism in human liver microsomes assessed as enzyme-mediated O-deethylation incubated for 5 mins prior to NADPH addition measured after 25 mins by Michaelis-Menten equation analysis; assay type: ADME; conditions: microsomes, 25 min
[13] = as §2; assay type: ADME; conditions: liver microsomes
[14] = Stability of the compound assessed as retention time by HPLC analysis
[15] = substrate: CCOc1ccc(NC(C)=O)cc1; experiment: Activity of rat recombinant CYP1A2 expressed in Escherichia coli assessed as enzyme-mediated O-deethylation after 7.5 mins by Michaelis-Menten equation analysis; assay type: ADME
[16] = substrate: CCOc1ccc(NC(C)=O)cc1; experiment: Activity of rat recombinant CYP1A2 expressed in Escherichia coli assessed as enzyme-mediated O-deethylation after 7.5 mins by Michaelis-Menten equation analysis in presence of BSA; assay type: ADME

Molecule `CCNCC(=O)Nc1c(C)cccc1C` has a Retention_time (Liver microsome [1]) of 4.4 min.

Work on `CCCCCCCC/C=C\CCCCCCCC(=O)[O-].[Na+]` yielded a Ki (Cytochrome P450 1A2 [2]) of 16.7 µM.

With `CCOc1ccc(NC(C)=O)cc1` [PHENACETIN] the Retention_time (Liver microsome [3]) was 13 min, the CL (Homo sapiens [4]) was 933 L/h and the VmaxH (Liver microsome [5]) was 772 pmol/min. For the same molecule, the VmaxL (Liver microsome [5]) was 820 pmol/min, the Km at 25 min ([6]; read-out: KmH) was 6.6 µM and the Km at 25 min ([6]; read-out: KmL) was 881 µM. The fraction unbound (Cytochrome P450 1A2 [7]) was 0.98, the CLH (Homo sapiens [8]) was 71 L/h and the fraction unbound (Cytochrome P450 1A2 [9]) was 0.8. The fraction unbound [10] was 0.78, the fraction unbound [11] was 0.98 and the VmaxH (Liver microsome [12]) was 811 pmol/min. The VmaxL (Liver microsome [12]) was 523 pmol/min, the Km at 25 min ([13]; read-out: KmH) was 27.8 µM and the Km at 25 min ([13]; read-out: KmL) was 867 µM. It also gave a Retention_time [14] of 3.6 min.

Work on `CCCCC/C=C\C/C=C\C/C=C\C/C=C\CCCC(=O)O` yielded a Ki (Cytochrome P450 1A2 [2]) of 4.7 µM.

Molecule `CCCCC/C=C\C/C=C\CCCCCCCC(=O)O` [SODIUM LINOLATE] has a Ki (Cytochrome P450 1A2 [2]) of 13.6 µM.

B1: Cytochrome P450 1A2 (Rattus norvegicus) (protein)
chain: T1 sequence (P04799 whole entry)
B1 gave a Km [15] of 13.6 µM, a Vmax [15] of 3.97e-05 µmol/min and a Km [16] of 3.8 µM. It also gave a Vmax [16] of 4.65e-05 µmol/min.
